Experimental data taken from US20160206597A1, “New Use” (priority 2013, published 2016).

How the values were obtained:
[1] = test system: patients with chronic heart failure with preserved left-ventricular ejection fraction (HF-PEF); assay: NT-proBNP in 36-week randomized double-blind study of LCZ696 vs valsartan; format: in vivo, human; settings: for NT-proBNP at 12 weeks / NT-proBNP at 36 weeks / NT-proBNP, Baseline (12-week analysis) / NT-proBNP, Baseline (36-week analysis): geometric mean; for NT-proBNP at 12 weeks / NT-proBNP at 36 weeks: LCZ696 200 mg or valsartan 160 mg twice daily; for NT-proBNP, Baseline (12-week analysis) / NT-proBNP, Baseline (36-week analysis): baseline before treatment; for NT-proBNP, Baseline (12-week analysis): patients evaluated at 12 weeks; for NT-proBNP, Baseline (36-week analysis): patients evaluated at 36 weeks; for Ratio of change in NT-proBNP (LCZ696/valsartan) at 12 weeks: baseline to 12 weeks, 95% CI 0.64-0.92, p = 0.005
Description: (§1) Men and women aged 40 years or older with a left ventricular ejection fraction of 45% or above, and a documented history of heart failure with associated signs or symptoms (dyspnea on exertion, orthopnea, paroxysmal dyspnea, and peripheral edema) are eligible. Patients are required to have an NT-proBNP >400 pg/mL at screening, be on diuretic therapy, and have a systolic blood pressure less than 140 mm Hg, or 160 mm Hg or less if on three or more blood pressure medications at randomization. Additional inclusion criteria include an estimated glomerular filtration rate (eGFR) of at least 30 ml/min/1.73 m^2 at screening (calculated by the Modification of Diet in Renal Disease formula) and a potassium concentration of no more than 5.2 mmol/L.
Patients are excluded if they had prior left ventricular ejection fraction less than 45% at any time, isolated right heart failure due to pulmonary disease, dyspnea due to non-cardiac causes such as pulmonary disease, anemia, or severe obesity, primary valvular or myocardial diseases, or coronary artery or cerebrovascular disease requiring revascularization within 3 months of screening or likely to require revascularization during the trial.

[2] = test system: patients with chronic heart failure with preserved left-ventricular ejection fraction (HF-PEF); assay: Echocardiographic parameters in the 36-week HF-PEF study; format: in vivo, human; settings: for LA Volume Index, Δ from Baseline / LA Volume, Δ from Baseline / LA dimension, Δ from Baseline / LV mass index, Δ from Baseline / Relative wall thickness, Δ from Baseline: at 36 weeks
Procedure: Echocardiographic studies are performed at screening, randomization, at week 12, and week 36 or at end of study or early termination visits. Echocardiograms performed at screening are evaluated by local readers for qualifying information. All other echocardiograms are only performed in patients meeting NT-proBNP entry criterion and are evaluated centrally. For assessment of global ventricular size and function, left ventricular end-diastolic and end-systolic volumes are obtained utilizing the Simpson's rule method and left ventricular ejection fraction is derived in the usual fashion. Maximal left atrial dimension is measured in the parasternal long-axis view, and left atrial volume is assessed with the Simpson's rule method and indexed to body surface area. Measurements are made in triplicate in accordance with the recommendations of the American Society of Echocardiography. Blood pressure and heart rate are measured at all study visits with a calibrated standard sphygmomanometer and appropriate size cuff. The use of concomitant medication is recorded at each study visit.

[3] = test system: patients with chronic heart failure with preserved left-ventricular ejection fraction (HF-PEF); assay: Renal function parameters (eGFR, serum creatinine, urinary albumin creatinine ratio) in the 36-week HF-PEF study; format: in vivo, human; settings: for urinary albumin creatinine ratio at baseline: baseline before treatment; for eGFR decrease over 36 weeks: p=0.007; for urinary albumin creatinine ratio at week 36: p=0.02 between groups
Procedure: The term “eGFR” refers to estimated glomerular filtration rate. Within the context of the present invention the eGFR is calculated by the Modification in Diet in Renal Disease (MDRD) formula, which is the one recommended by NICE and The Renal Association (UK), and which is based on the equation described in Levey A S, Bosch J P, Lewis J B, et al; “A more accurate method to estimate glomerular filtration rate from serum creatinine: a new prediction equation. Modification of Diet in Renal Disease Study Group.” Ann Intern Med. 1999 Mar. 16; 130(6):461-70.
as §1

[4] = test system: patients with chronic heart failure with preserved left-ventricular ejection fraction (HF-PEF); assay: Safety and tolerability in the 36-week HF-PEF study; settings: 36-week study
Procedure: (§2) Eligible patients are enrolled into a 2-week, single-blind placebo run-in period, during which time they continue their background medications. ACE inhibitors and angiotensin receptor blockers are required to be discontinued 24 hours prior to randomization.
(§3) At the investigator's discretion, patients are allowed to stay on each titration dose for an additional week. […] Patients remain on these doses for the remainder of the study, although those not tolerating the maximum dose of study medication could be down-titrated to a lower dose at the Investigator's discretion and then re-challenged to the maximum dose of study medication, or remain on the lower dose.

[5] = test system: patients with chronic heart failure with preserved left-ventricular ejection fraction (HF-PEF); assay: NYHA class, clinical composite assessment and KCCQ in the 36-week HF-PEF study; settings: p=0.05
Procedure: as §2, §3
The primary study endpoint is the change from baseline in NT-proBNP assessed at 12 weeks, and is analyzed using the last observation after baseline carried forward. […]
The clinical composite assessment is based on a composite of the NYHA functional classification, patient global assessment and major adverse clinical events. […] Patients are determined to be worse if at the endpoint visit they experienced a major adverse cardiac event during the double blind treatment or reported worsening of their NYHA class or patient global assessment. […]

Compound | NT-proBNP at 12 weeks ([1]; 12 weeks) [pg/mL] | NT-proBNP at 36 weeks [1] [pg/mL] | NT-proBNP, Baseline (12-week analysis) [1] [pg/mL] | NT-proBNP, Baseline (36-week analysis) [1] [pg/mL] | LA Volume Index, Δ from Baseline [2] [ml/m^2] | LA Volume, Δ from Baseline [2] [mL] | LA dimension, Δ from Baseline [2] [cm] | LV mass index, Δ from Baseline [2] [g/m^2] | Relative wall thickness, Δ from Baseline [2] | LA Volume Index, Baseline ([2]; baseline before treatment) [ml/m^2] | LA Volume, Baseline ([2]; baseline before treatment) [mL] | LA dimension, Baseline ([2]; baseline before treatment) [cm] | LV mass index, Baseline ([2]; baseline before treatment) [g/m^2] | urinary albumin creatinine ratio at baseline [3] [mg/mmol] | eGFR decrease over 36 weeks [3] [mL/min per 1.73 m^2] | urinary albumin creatinine ratio at week 36 [3] [mg/mmol] | further results
CCCCC(=O)N(Cc1ccc(-c2ccccc2-c2nnn[nH]2)cc1)[C@H](C(=O)O)C(C)C [Valsartan, (S)—N-valeryl-N-{[2′-(1H-tetrazole-5-yl)-biphenyl-4-yl]-methyl}-valine, reference compound] | 835 | 607 | 862 | 822 | 0.31 | 0.37 | −0.08 | −1.93 | +0.01% | 36.80 | 68.28 | 3.73 | 79.45 | 2.0 | −5.2 | 2.0 | Adverse event atrial fibrillation (number of patients) [4]: 8 patients; Adverse event atrial fibrillation (percent of patients) [4]: 5.3%; Angio-oedema occurrence [4]: no patients; Deaths among serious adverse events [4]: two deaths; Patients with one or more serious adverse events (number) [4]: 30 patients; Patients with one or more serious adverse events (percent) [4]: 20%
trisodium [3-((1S,3R)-1-biphenyl-4-ylmethyl-3-ethoxycarbonyl-1-butylcarbamoyl) propionate-(S)-3′-methyl-2′-(pentanoyl{2″-(tetrazol-5-ylate)biphenyl-4′-ylmethyl}amino)butyrate]hemipentahydrate [LCZ696] | 605 | 496 | 783 | 763 | −2.61 | -4.61 | −0.15 | −2.78 | +0.01% | 35.01 | 65.26 | 3.68 | 76.56 | 1.9 | −1.6 | 2.9 | Reduction in NT-proBNP versus valsartan after adjustment for the change in blood pressure ([1]; 12 weeks, p=0.01): greater reduction; Early reduction in NT-proBNP compared with the valsartan group ([1]; after 4 weeks of treatment, p=0.063): not significant; Ratio of change in NT-proBNP (LCZ696/valsartan) at 12 weeks [1]: 0.77; Ratio of change in NT-proBNP (LCZ696/valsartan) at 12 weeks ([1]; listed as LZC696): 0.77 (95% CI; Ratio of change in NT-proBNP (LCZ696/valsartan) at 36 weeks ([1]; baseline to 36 weeks, 95% CI 0.65-1.09, p = 0.20): 0.85 (95% CI; Left atrial volume, left atrial volume index (LAVI) and left atrial dimension, result in words ([2]; after 36 weeks of treatment, p=0.003, 0.007 and 0.034): reduced significantly; Relative wall thickness, Baseline ([2]; baseline before treatment): 0.37; Preservation of renal function compared with valsartan ([3]; after 36 weeks of therapy, eGFR and creatinine data): better preserved renal function; eGFR, LSM of difference (95% CI), LCZ696 vs. Valsartan ([3]; at 36 weeks, P 0.0163): 3.46 (0.64, 6.27) mL/min/1.73 m^2; Serum creatinine, LSM of difference (95% CI), LCZ696 vs. Valsartan ([3]; at 36 weeks, P 0.0193): −4.83 (−8.87, −0.79) μmol/L; NYHA class at 36 weeks compared with the valsartan group [5]: improvement in NYHA class
